In US8138168B1 (Takeda Pharmaceutical Company Limited, priority 2007, dated 2012) one finds IC50 data, which are given here for 11 compounds.

pIC50: −log10 of the molar value.

For this assay, the target named is T1, Recombinant human renin (Homo sapiens, UniProt P00797).
T1 construct: isolate the active form (residues 67-406); made in house; host or cells: FreeStyle 293-F cells (transient expression of pcDNA3.1(+)/hREN)
T1 sequence (P00797 67-406): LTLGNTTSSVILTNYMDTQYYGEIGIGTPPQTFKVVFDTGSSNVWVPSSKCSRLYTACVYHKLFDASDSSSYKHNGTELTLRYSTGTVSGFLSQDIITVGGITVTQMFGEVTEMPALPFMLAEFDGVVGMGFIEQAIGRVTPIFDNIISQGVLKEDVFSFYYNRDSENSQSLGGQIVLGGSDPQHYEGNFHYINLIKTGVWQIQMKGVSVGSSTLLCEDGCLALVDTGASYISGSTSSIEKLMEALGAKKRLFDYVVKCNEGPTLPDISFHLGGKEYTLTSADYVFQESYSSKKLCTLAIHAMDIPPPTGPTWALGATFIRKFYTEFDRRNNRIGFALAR
In words: In vitro enzymatic activity assay of renin inhibitors (fluorogenic peptide substrate). In kind it is biochemical. Conditions: read-out: IC50 of Exemplified Compounds Against Renin. In a few lines:
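Recombinant human renin (3 nM final) pre-incubated 10 min at 37 °C with compounds in pH 7.4 Hepes/EDTA/DTT/0.1 mg/mL BSA/Brij35 buffer (optionally plus 2% BSA), 5% DMSO final; fluorogenic QXL520/HiLyteFluo488 peptide substrate added.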

The pIC50 is the IC50 on a negative log10 scale, so that one unit is a factor of ten. As for `COCCCn1c([C@@H]2CCCN(C(=O)C[C@H](N)Cc3ccc(-n4ccc(=O)n(C)c4=O)cc3)C2)nc2ccccc21` [Compound 210, 1-(4-((R)-2-amino-4-((R)-3-(1-(3-methoxypropyl)-1H-benzo[d]imidazol-2-yl)piperidin-1-yl)-4-oxobutyl)phenyl)-3-methylpyrimidine-2,4(1H,3H)-dione], the pIC50 is 6.00 to 7.00.

Consider `COCCCn1c([C@@H]2CCCN(C(=O)C[C@H](N)CNC(=O)c3ccc(-c4ccccc4[N+](=O)[O-])o3)C2)nc2ccccc21` [Compound 275, N-((S)-2-amino-4-((R)-3-(1-(3-methoxypropyl)-1H-benzo[d]imidazol-2-yl)piperidin-1-yl)-4-oxobutyl)-5-(2-nitrophenyl)furan-2-carboxamide], for which the pIC50 was 6.00 to 7.00.

In the case of `O=C(Nc1ccccc1)N1CCCC(c2nc3ccccc3[nH]2)C1` (centres unmarked) [Compound 8, 3-(1H-benzo[d]imidazol-2-yl)-N-phenylpiperidine-1-carboxamide], the negative-log IC50 (pIC50) is less than 6.00.

Consider `COCCCn1c([C@@H]2CCCN(C(=O)[C@@H]3CN(S(=O)(=O)c4cc(C(F)(F)F)ccc4Cl)C[C@H]3N)C2)nc2ccccc21` [Compound 356, ((3R,4S)-4-amino-1-(2-chloro-5-(trifluoromethyl)phenylsulfonyl)pyrrolidin-3-yl)((R)-3-(1-(3-methoxypropyl)-1H-benzo[d]imidazol-2-yl)piperidin-1-yl)methanone], for which the pIC50 was 6.00 to 7.00.

With `COCCCn1c([C@@H]2CCCN(C(=O)C[C@H](N)CNC(=O)Nc3ccccc3C(=O)OC)C2)nc2ccccc21` [Compound 329, methyl 2-(3-((S)-2-amino-4-((R)-3-(1-(3-methoxypropyl)-1H-benzo[d]imidazol-2-yl)piperidin-1-yl)-4-oxobutyl)ureido)benzoate], the pIC50 was less than 6.00.

`CC(=O)NCCn1c([C@@H]2CCCN(C(=O)C[C@H](N)Cc3ccc(-c4ccc5c(c4)CC(=O)N5)cc3)C2)nc2ccccc21` [Compound 465, N-(2-(2-((R)-1-((R)-3-amino-4-(4-(2-oxoindolin-5-yl)phenyl)butanoyl)piperidin-3-yl)-1H-benzo[d]imidazol-1-yl)ethyl)acetamide]: the pIC50 is greater than 7.00.

As for `COCCCn1c([C@@H]2CCCN(C(=O)C[C@H](N)Cc3ccc(-n4c(=O)[nH]c5cc(C)c(C)cc54)cc3)C2)nc2ccccc21` [Compound 219, 1-(4-((R)-2-amino-4-((R)-3-(1-(3-methoxypropyl)-1H-benzo[d]imidazol-2-yl)piperidin-1-yl)-4-oxobutyl)phenyl)-5,6-dimethyl-1H-benzo[d]imidazol-2(3H)-one], the pIC50 is greater than 7.00.

On to `COCCCn1c([C@@H]2CCCN(C(=O)C[C@H](N)c3cccnc3)C2)nc2ccccc21` [Compound 119, (S)-3-amino-1((R)-3-(1-(3-methoxypropyl)-1H-benzo[d]imidazol-2-yl)piperidin-1-yl)-3-(pyridin-3-yl)propan-1-one], for which the pIC50 was 6.00 to 7.00.

Take `N[C@@H](CC(=O)N1CCC[C@@H](c2nc3ccccc3[nH]2)C1)Cc1ccc(-c2ccccc2)cc1` [Compound 71, (R)-1-((R)-3-(1H-benzo[d]imidazol-2-yl)piperidin-1-yl)-3-amino-4-(biphenyl-4-yl)butan-1-one]: the pIC50 was less than 6.00.

On to `COCCCn1c([C@@H]2CCCN(C(=O)[C@@H]3CN(S(=O)(=O)c4cc(C)ccc4OC)C[C@H]3N)C2)nc2ccccc21` [Compound 410, ((3R,4S)-4-amino-1-(2-methoxy-5-methylphenylsulfonyl)pyrrolidin-3-yl)((R)-3-(1-(3-methoxypropyl)-1H-benzo[d]imidazol-2-yl)piperidin-1-yl)methanone], for which the pIC50 is less than 6.00.

As to `NC(=O)CCn1c([C@@H]2CCCN(C(=O)C[C@H](N)Cc3ccc(-c4ccc(N)nc4)cc3)C2)nc2ccccc21` [Compound 480, 3-(2-((R)-1-((R)-3-amino-4-(4-(6-aminopyridin-3-yl)phenyl)butanoyl)piperidin-3-yl)-1H-benzo[d]imidazol-1-yl)propanamide], the pIC50 is 6.00 to 7.00.
